Assay results as given in US7504397B2, “mTOR inhibitor compounds” (Kudos Pharmaceuticals Ltd., priority 2005, dated 2009).

Each compound was assayed against mTOR protein (Homo sapiens, UniProt P42345) (assay: mTOR enzyme activity assay (PHAS-1 substrate)). Conditions: recombinant PHAS-1 as substrate.
Type: biochemical
Excerpt: For mTOR enzyme activity assays, mTOR protein was isolated from HeLa cell cytoplasmic extract by immunoprecipitation, and activity determined essentially as described previously using recombinant PHAS-1 as a substrate (ref. 21).
With COc1cc(-c2csc(-c3ccnc(N4CCOCC4)n3)n2)cc(OC)c1O [Compound 27, 2,6-Dimethoxy-4-[2-(2-morpholin-4-yl-pyrimidin-4-yl)-thiazol-4-yl]-phenol] the IC50 was less than 1500 nM. COc1cc(-c2csc(-c3ccnc(N4CCCC(OC)C4)n3)n2)cc(OC)c1O (centres unmarked) [Compound 59j] was tested, and the IC50 was less than 1500 nM. With COc1cc(-c2cncn2-c2ccnc(N3CCOCC3)n2)cc(OC)c1O [Compound 50, 2,6-Dimethoxy-4-[3-(2-morpholin-4-yl-pyrimidin-4-yl)-3H-imidazol-4-yl]-phenol] the IC50 was less than 1500 nM. In the case of COc1cc2ncnc(NN=Cc3ccc(O)c(O)c3)c2cc1OC [Compound 41a], the IC50 is reported as less than 1500 nM. Work on Oc1c(F)cc(-c2csc(-c3ccnc(N4CCOCC4)n3)n2)cc1F [Compound 59a] yielded an IC50 of less than 1500 nM. COc1cc(C=NNc2cc(N3CCOCC3)nc(N3CCCCC3)n2)cc(OC)c1O [Compound 12b] showed an IC50 of less than 1500 nM. In the case of O=C(NNc1nc(N2CCOCC2)nc(N2CCOCC2)n1)c1cc(O)c(O)c(O)c1 [Compound 47a], the IC50 is reported as less than 1500 nM. COc1cc(C=NN(C)c2nc(N3CCOCC3)c3cccnc3n2)cc(OC)c1O [Compound 75b] was tested, and the IC50 was less than 1500 nM. CN(N=Cc1cc(O)c(O)c(O)c1)c1nc(N2CCOCC2)c2cccnc2n1 [Compound 75a] gave an IC50 of less than 1500 nM. For COc1cc(-c2csc(-c3ccnc(N4CCOCC4)n3)c2)cc(OC)c1O [Compound 69a], the IC50 was less than 1500 nM. COc1cc(-c2csc(-c3ccnc(N4CCOC[C@@H]4C)n3)n2)cc(OC)c1O [Compound 59i] showed an IC50 of less than 1500 nM.
